Test results from US20100196287A1, “Compositions Comprising Perhydrolases and Alkylene Glycol Diacetates” (priority 2007, published 2010).

Columns and labels:
[1] = Washing test on stained fabric with perhydrolase and substrate, blueberry stain; settings: 50 mM substrate, 60 min., 40° C.; in comparison with methyl acetate; FIG. 1
Method: (§1) • blueberry juice on cotton: product no. C15 from CFT B. V. Vlaardingen, Holland • tea on cotton: product no. 167, Eidgenössische Material- and Prüfanstalt (EMPA) Testmaterialien AG, St. Gallen, Switzerland
(§2) After incubation, the stains were washed three times (3×), dried and fixed. Intensity was measured with a colorimeter Cm508d (Minolta). For this test, round pieces of the test fabric (diameter 10 mm) were incubated in 1 ml alkaline solution in a 24 well microtitration plate. Each test was carried out as a triple determination against a triply determined control. After washing, the degree of whiteness of the washed fabrics was measured in comparison with a whiteness standard (d/8, Ø 8 mm, SCl/SCE), which had been set at 100% (L-value determination). The measurement was made using a colorimeter (Minolta Cm508d) with a light setting of 10°/D65. The results were expressed as percent power, wherein the difference of the reflectance value of the base washing agent without enzymes but with substrate was normalized to 100% (with the comparison substrate methyl acetate).

Toxicity (statement) = settings: in contrast to methyl acetate
[2] = Water solubility (statement); type: physicochemical; settings: in contrast to methyl acetate
[3] = Washing test on stained fabric with perhydrolase and substrate, tea stain; settings: 50 mM substrate, 60 min., 40° C.; in comparison with methyl acetate; FIG. 1
Method: as §1, §2

Row | Structure (SMILES) | washing power for blueberry stains [1] | toxicity (Toxicity (statement)) | water solubility [2] | washing power for tea stains [3]
1 | CC(=O)OCC(C)OC(C)=O (stereo not shown) [Propylene glycol diacetate] | comparable | non-toxic | highly water-soluble | comparable
2 | CC(=O)OCCOC(C)=O [Ethylene glycol diacetate] | comparable | non-toxic |  | significantly better
